Values quoted from earlier work, collected in US6737381B1, “Phytosanitary composition comprising at least a water soluble agent and a modified oil” (Institut National de la Recherche Agronomique, priority 1999, dated 2004).

Conditions: hydrophilic herbicide

O=C(O)CNCP(=O)(O)O [glyphosate, N-(phosphonomethyl)glycine]
log P: < −3.4
